Data published in patent US12195482B1 (Arcus Biosciences, Inc., priority 2022, dated 2025).

What was measured:
[1] = biological target: T1, p-AXL (Homo sapiens, UniProt P30530); experiment: Axl phosphorylation inhibition ELISA in HEK293T cells transfected with NanoLuc-tagged AXL; assay type: cell-based; details: 1 h compound incubation, media (OptiMEM)
T1 construct: expressed in transfected cells; host or cells: HEK293T
T1 sequence (P30530 26-894): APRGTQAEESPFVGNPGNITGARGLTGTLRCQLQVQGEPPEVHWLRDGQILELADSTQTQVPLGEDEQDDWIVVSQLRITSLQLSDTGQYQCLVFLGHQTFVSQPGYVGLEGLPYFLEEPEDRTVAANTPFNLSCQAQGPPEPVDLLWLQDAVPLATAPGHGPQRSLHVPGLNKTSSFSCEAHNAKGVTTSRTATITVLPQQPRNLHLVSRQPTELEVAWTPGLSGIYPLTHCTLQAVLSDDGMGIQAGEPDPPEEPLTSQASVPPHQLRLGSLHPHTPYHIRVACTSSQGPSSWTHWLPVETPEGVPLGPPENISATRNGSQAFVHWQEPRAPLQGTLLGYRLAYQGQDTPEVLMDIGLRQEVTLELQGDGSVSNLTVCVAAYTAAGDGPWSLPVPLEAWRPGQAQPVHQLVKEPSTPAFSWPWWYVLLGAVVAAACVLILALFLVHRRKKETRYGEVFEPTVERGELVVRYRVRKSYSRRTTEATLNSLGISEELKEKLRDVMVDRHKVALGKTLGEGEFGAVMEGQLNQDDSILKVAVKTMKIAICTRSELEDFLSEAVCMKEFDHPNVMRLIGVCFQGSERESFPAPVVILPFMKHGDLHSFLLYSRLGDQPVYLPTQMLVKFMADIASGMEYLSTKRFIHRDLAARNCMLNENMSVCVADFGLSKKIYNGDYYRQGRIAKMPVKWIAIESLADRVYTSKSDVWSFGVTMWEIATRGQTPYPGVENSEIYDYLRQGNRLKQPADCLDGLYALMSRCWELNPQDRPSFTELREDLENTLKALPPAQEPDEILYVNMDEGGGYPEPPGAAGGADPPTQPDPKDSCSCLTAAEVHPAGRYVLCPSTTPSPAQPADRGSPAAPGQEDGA
Method: [formula] Measurement of Axl Phosphorylation Inhibition
The dose-response assays were performed in S-Bio PrimeSurface® 3D culture: Ultra-low Attachment Plates: 384 well, U bottom (#MS-9384UZ) containing 400 nL of 22 serial 2-fold compound dilutions using Bravo and Echo. ELISA assay was performed on Pierce™ streptavidin coated high capacity 384-well white plates (Thermofisher Cat #15505). The plates were coated overnight at 4° C. with 50 μl/well of biotinlyated phospho-tyrosine mouse mAb (Cell Signaling Technology, 9417s).
HEK293T cells were grown in DMEM containing 10% FBS, 1% Pen/Strep, 1% G-Max. A day before the assay, cells were transiently transfected with 6.8 μg of NanoLuc-tagged AXL plasmid DNA and 8 μg of carrier DNA using FuGENE® HD Transfection Reagent (Promega) according to manufacturer's instructions. On the day of the assay, transfected cells were harvested and resuspended in OptiMEM. 70,000 cells/well were added to the compounds containing assay plates. After a gentle mix and a short spin, the plates were incubated at 37° C. After 1 h, the cells were lysed followed by a brief centrifugation and 30 min of shaking at 300 rpm. Meanwhile, the antibody coated plates were brought to room temperature and then were washed ten times in PBS with 0.05% Tween 20 (ELISA-wash buffer). 50 μl/well of cell lysate was transferred to the ELISA plates and shaken for 2 hours. After washing again with the ELISA wash buffer, the samples were diluted with 25 μl of PBS. The captured NanoLuc tagged p-AXL was detected using Nano-Glo® Luciferase Assay System (Promega) and manufacturer's instruction. The luminescence signal was measured using Envision plate reader. IC50 values were determined by fitting the data to a standard 4-parameter logistic equation.

[2] = biological target: T2, Axl (Homo sapiens, UniProt P30530); experiment: Biochemical potency, HTRF KinEASE-TK kinase assay; design: purchased Invitrogen; details: 5 nM AXL, 700 μM ATP
T2 sequence (P30530 26-894): T1 sequence (P30530 26-894)
Method: Measurement of Biochemical Compound Potency of Axl Inhibitors
Purified recombinant human AXL, TYRO3 and MER proteins were purchased from Invitrogen™. 10 nM AXL, 2 nM TYRO3 or MER were incubated with varying concentrations of compounds in 50 mM HEPES, pH 7.4, 10 mM MgCl2, 0.01% BSA, 1 mM DTT and 2% DMSO in a total volume of 20 μl in a 384-well microplate (Corning™ #3640) at RT for 1 h. The AXL, TYRO3 and MER enzymatic reaction was initiated by transferring 10 μl of enzyme and compound mixture into 10 μl of 1.6 μM TK Substrate-biotin (HTRF® KinEASE-TK kit, Cisbio) and 1400 μM ATP pre-incubated in 50 mM HEPES, pH 7.4, 10 mM MgCl2, 0.01% BSA, 1 mM DTT in a 384-well microplate (Corning™ #3640) at RT, giving the final reaction conditions: 5 nM AXL, 1 nM TYRO3 or MER, 800 nM TK Substrate-biotin and 700 μM ATP in 50 mM HEPES, pH 7.4, 10 mM MgCl2, 0.01% BSA, 1 mM DTT and 1% DMSO with varying concentrations of compounds. Following 2 h incubation at RT, the AXL, TYRO3 and MER enzymatic reaction was stopped by transfer of 10 μl of reaction into 10 μl of detection mix (400 nM Streptavidin-XL665, 200-fold dilution TK Antibody-Cryptate and detection buffer, HTRF® KinEASE-TK kit, Cisbio) in a white 384-well microplate (Perkin Elmer, OptiPlate 384). After 1 h incubation at RT, the plate was put into a plate reader (Evision) to read at 665/620 nm (acceptor/donor) for HTRF. The value of the DMSO blank (MIN inhibition=100% activity) was used as a negative control. The positive control was established by adding 5 μl of enzyme and DMSO mixture into 10 μl of detection mix followed by addition of 5 μl of TK Substrate-biotin and ATP mixture (MAX inhibition=0% activity). To calculate the percent activity, Equation 1 was used. Ratio665/620 is the value at a given compound concentration: […]

| Compound | IC50 [1] [µM] | IC50 [2] [µM] |
| --- | --- | --- |
| Cc1cccnc1-c1ccc(-c2c[nH]c3nnc(-c4ccc5c(c4)CC[C@@](C)(N4CCC[C@H]4C)CC5)cc23)cc1 [Example 18, 3-[(7S)-7-Methyl-7-[(2R)-2-methylpyrrolidin-1-yl]-5,6,8,9-tetrahydrobenzo[7]annulen-3-yl]-5-[4-(3-methylpyridin-2-yl)phenyl]-7H-pyrrolo[2,3-c]pyridazine] | < 0.1 | < 0.1 |
| Cc1cccnc1-c1cccc(-c2c[nH]c3ncc(-c4ccc5c(c4)CC[C@@H](N4C6COCC4C6)CC5)cc23)c1 [Example 82, 6-[(7S)-2-{3-[3-(3-Methylpyridin-2-yl)phenyl]-1H-pyrrolo[2,3-b]pyridin-5-yl}-6,7,8,9-tetrahydro-5H-benzo[7]annulen-7-yl]-3-oxa-6-azabicyclo[3.1.1]heptane] | < 0.1 | < 0.1 |
| Cc1cnc(C)c(-c2ccc(-c3n[nH]c4ncc(-c5ccc6c(c5)CC[C@@](C)(N5CCC[C@H]5C)CC6)cc34)cc2)n1 [Example 64, 2,5-Dimethyl-3-(4-{5-[(7S)-7-methyl-7-[(2R)-2-methylpyrrolidin-1-yl]-6,7,8,9-tetrahydro-5H-benzo[7]annulen-2-yl]-1H-pyrazolo[3,4-b]pyridin-3-yl}phenyl)pyrazine] | < 0.1 | < 0.1 |
| Cc1cnc(C)c(-c2ccc(-c3c[nH]c4ncc(-c5ccc6c(c5)CC[C@@H](N5C[C@@H]7C[C@H]5CO7)CC6)cc34)cc2)n1 [Example 62, (1S,4S)-5-[(7S)-2-{3-[4-(3,6-Dimethylpyrazin-2-yl)phenyl]-1H-pyrrolo[2,3-b]pyridin-5-yl}-6,7,8,9-tetrahydro-5H-benzo[7]annulen-7-yl]-2-oxa-5-azabicyclo[2.2.1]heptane] | < 0.1 | < 0.1 |
| COCCN1CCc2ccc(-c3cnc4[nH]nc(-c5ccc(-c6ncccc6C)cc5)c4c3)cc2CC1 [Example 15, 3-(2-Methoxyethyl)-7-{3-[4-(3-methylpyridin-2-yl)phenyl]-1H-pyrazolo[3,4-b]pyridin-5-yl}-2,3,4,5-tetrahydro-1H-3-benzazepine] | 0.1 to 1 | < 0.1 |
| Cc1cccnc1-c1ccc(-c2c[nH]c3nnc(-c4ccc5c(c4)CC[C@@H](N4C6COCC4C6)CC5)cc23)cc1 [Example 36, 6-[(7S)-3-[5-[4-(3-Methylpyridin-2-yl)phenyl]-7H-pyrrolo[2,3-c]pyridazin-3-yl]-6,7,8,9-tetrahydro-5H-benzo[7]annulen-7-yl]-3-oxa-6-azabicyclo[3.1.1]heptane] | > 1 | < 0.1 |
| Cc1cc(F)cnc1-c1ccc(-c2c[nH]c3ncc(-c4ccc5c(c4)CC[C@@H](N4C6COCC4C6)CC5)cc23)nc1 [Example 35, 6-[(7S)-3-[3-[5-(5-Fluoro-3-methylpyridin-2-yl)pyridin-2-yl]-1H-pyrrolo[2,3-b]pyridin-5-yl]-6,7,8,9-tetrahydro-5H-benzo[7]annulen-7-yl]-3-oxa-6-azabicyclo[3.1.1]heptane] | < 0.1 | < 0.1 |
| Cc1ccc(C#N)c(-c2ccc(-c3c[nH]c4ncc(-c5ccc6c(c5)CC[C@@H](N5C7COCC5C7)CC6)cc34)cc2)n1 [Example 72, 6-Methyl-2-(4-{5-[(7S)-7-{3-oxa-6-azabicyclo[3.1.1]heptan-6-yl}-6,7,8,9-tetrahydro-5H-benzo[7]annulen-2-yl]-1H-pyrrolo[2,3-b]pyridin-3-yl}phenyl)pyridine-3-carbonitrile] | 0.1 to 1 | < 0.1 |
| Cc1cccnc1-c1ccc(-c2n[nH]c3ncc(-c4ccc5c(c4)CCN(C4CCCC4)CC5)cc23)cc1 [Example 24, 3-Cyclopentyl-7-{3-[4-(3-methylpyridin-2-yl)phenyl]-1H-pyrazolo[3,4-b]pyridin-5-yl}-2,3,4,5-tetrahydro-1H-3-benzazepine] | 0.1 to 1 | < 0.1 |

Results, then the compound that gave them:

| IC50 [1] [µM] | IC50 [2] [µM] | Compound |
| --- | --- | --- |
| < 0.1 | < 0.1 | Cc1ccc(C)c(-c2ccc(-c3n[nH]c4ncc(-c5ccc6c(c5)CC[C@@H](N[C@H]5CCCOC5)CC6)cc34)cc2)n1 [Example 140, (3S)—N-[(7S)-2-{3-[4-(3,6-Dimethylpyridin-2-yl)phenyl]-1H-pyrazolo[3,4-b]pyridin-5-yl}-6,7,8,9-tetrahydro-5H-benzo[7]annulen-7-yl]oxan-3-amine] |
| < 0.1 | < 0.1 | Cc1cccnc1-c1cnc(-c2c[nH]c3ncc(-c4ccc5c(c4)CC[C@@H](N4C6COCC4C6)CC5)cc23)cn1 [Example 184, 6-[(7S)-2-{3-[5-(3-Methylpyridin-2-yl)pyrazin-2-yl]-1H-pyrrolo[2,3-b]pyridin-5-yl}-6,7,8,9-tetrahydro-5H-benzo[7]annulen-7-yl]-3-oxa-6-azabicyclo[3.1.1]heptane] |
| 0.1 to 1 | < 0.1 | c1cc2c(c(-c3ccc(-c4n[nH]c5ncc(-c6ccc7c(c6)CC[C@@H](N6C8COCC6C8)CC7)cc45)cc3)n1)NCCO2 [Example 150, 6-[(7S)-2-[3-(4-{2H,3H,4H-Pyrido[4,3-b][1,4]oxazin-5-yl}phenyl)-1H-pyrazolo[3,4-b]pyridin-5-yl]-6,7,8,9-tetrahydro-5H-benzo[7]annulen-7-yl]-3-oxa-6-azabicyclo[3.1.1]heptane] |
| 0.1 to 1 | < 0.1 | Cc1cccc(C#N)c1-c1ccc(-c2c[nH]c3ncc(-c4ccc5c(c4)CC[C@@H](N4C6COCC4C6)CC5)cc23)nc1 [Example 197, 3-Methyl-2-(6-{5-[(7S)-7-{3-oxa-6-azabicyclo[3.1.1]heptan-6-yl}-6,7,8,9-tetrahydro-5H-benzo[7]annulen-2-yl]-1H-pyrrolo[2,3-b]pyridin-3-yl}pyridin-3-yl)benzonitrile] |
| < 0.1 | < 0.1 | Cc1cccnc1-c1cnc(-c2n[nH]c3ncc(-c4ccc5c(c4)CC[C@@H](N4C6COCC4C6)CC5)cc23)cn1 [Example 193, 6-[(7S)-2-{3-[5-(3-Methylpyridin-2-yl)pyrazin-2-yl]-1H-pyrazolo[3,4-b]pyridin-5-yl}-6,7,8,9-tetrahydro-5H-benzo[7]annulen-7-yl]-3-oxa-6-azabicyclo[3.1.1]heptane] |
